Assay [1] has as its target Human α2δ-1 subunit of Cav2.2 calcium channel (Homo sapiens, UniProt P54289). Briefly: Human α2δ-1 subunit of Cav2.2 calcium channel assay ([3H]-gabapentin binding). Particulars: binding to the α2δ-1 subunit of voltage-gated calcium channels, expressed as Ki class; + also covers inhibition between 1% and 50%. The procedure, abridged: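 Human α2δ-1 enriched membranes (2.5 μg) incubated 60 min at 27° C. with 15 nM [3H]-gabapentin in 10 mM Hepes-KOH pH 7.4; non-specific binding with 10 μM pregabalin. Filtration binding; % inhibition at 1 or 10 μM, or Ki from five concentrations.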

Assay [2] has as its target T1, Human σ1 receptor (Homo sapiens, UniProt Q99720).
T1 construct: expressed in transfected cells; host or cells: HEK-293
Kind of assay: Human σ1 receptor radioligand assay ([3H](+)-pentazocine binding). To be noted: binding to the σ1 receptor, expressed as Ki class; + also covers inhibition between 1% and 50%. The procedure, abridged: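 Membranes (7 μg) were incubated with 5 nM [3H](+)-pentazocine in 50 mM Tris-HCl pH 8 for 120 min at 37° C. Non-specific binding was defined with 10 μM haloperidol. Values are % inhibition at 1 or 10 μM or Ki from five concentrations, read by filtration and scintillation counting.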

Bounds are passed on as bounds.

T1 sequence (Q99720 whole entry): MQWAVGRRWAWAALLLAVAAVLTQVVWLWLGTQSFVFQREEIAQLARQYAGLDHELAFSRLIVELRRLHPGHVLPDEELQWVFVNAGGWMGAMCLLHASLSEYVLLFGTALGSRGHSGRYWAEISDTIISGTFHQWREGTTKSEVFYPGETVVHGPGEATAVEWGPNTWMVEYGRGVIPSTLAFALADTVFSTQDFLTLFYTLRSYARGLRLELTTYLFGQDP
Sequence of Human α2δ-1 subunit of Cav2.2 calcium channel (P54289 25-1103): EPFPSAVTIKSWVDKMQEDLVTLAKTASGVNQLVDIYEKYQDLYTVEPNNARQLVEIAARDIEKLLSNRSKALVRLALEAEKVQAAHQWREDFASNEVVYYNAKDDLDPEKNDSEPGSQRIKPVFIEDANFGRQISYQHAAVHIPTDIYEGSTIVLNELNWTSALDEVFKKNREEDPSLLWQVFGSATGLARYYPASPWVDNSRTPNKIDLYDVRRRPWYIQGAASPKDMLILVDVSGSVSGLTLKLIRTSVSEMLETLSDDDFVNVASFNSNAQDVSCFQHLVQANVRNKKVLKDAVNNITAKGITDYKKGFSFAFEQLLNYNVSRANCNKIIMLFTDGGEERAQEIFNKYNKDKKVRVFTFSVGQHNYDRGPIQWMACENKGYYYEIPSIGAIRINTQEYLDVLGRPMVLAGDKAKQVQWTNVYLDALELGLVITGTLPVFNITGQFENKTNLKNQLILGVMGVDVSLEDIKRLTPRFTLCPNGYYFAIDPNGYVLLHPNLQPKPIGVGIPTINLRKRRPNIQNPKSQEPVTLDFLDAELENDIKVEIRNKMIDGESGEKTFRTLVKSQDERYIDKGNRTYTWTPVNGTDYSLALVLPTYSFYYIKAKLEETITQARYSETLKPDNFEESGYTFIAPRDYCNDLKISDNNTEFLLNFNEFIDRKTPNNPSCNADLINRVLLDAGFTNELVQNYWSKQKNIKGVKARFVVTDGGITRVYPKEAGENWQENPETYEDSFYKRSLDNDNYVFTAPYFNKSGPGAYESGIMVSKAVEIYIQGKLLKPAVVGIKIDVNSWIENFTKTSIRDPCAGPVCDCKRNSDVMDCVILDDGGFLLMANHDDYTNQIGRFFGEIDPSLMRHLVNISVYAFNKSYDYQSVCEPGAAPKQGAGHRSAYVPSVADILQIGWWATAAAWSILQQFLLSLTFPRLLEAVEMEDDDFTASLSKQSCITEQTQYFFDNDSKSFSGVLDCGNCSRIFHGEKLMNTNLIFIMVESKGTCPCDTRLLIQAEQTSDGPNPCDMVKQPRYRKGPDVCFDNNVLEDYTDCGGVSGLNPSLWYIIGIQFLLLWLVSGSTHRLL

What is called Ki is the dissociation constant of the complex between target and ligand, obtained from inhibition or displacement. With `CCC[C@@H](c1nc2ccncc2c(=O)n1CC)N1CCN(C)C[C@H](C)C1` [Example 170, 2-((S)-1-((S)-4,6-dimethyl-1,4-diazepan-1-yl)butyl)-3-ethylpyrido[4,3-d]pyrimidin-4(3H)-one], the Ki in assay [1] is 500 to 5000 nM; in assay [2] it was over 1000 nM.

For `CCC[C@@H](c1nc2ccncc2c(=O)n1CC)N1CCN(C)C[C@@H](C)C1` [Example 171, 2-((S)-1-((R)-4,6-dimethyl-1,4-diazepan-1-yl)butyl)-3-ethylpyrido[4,3-d]pyrimidin-4(3H)-one], the inhibition constant (Ki) is over 5000 nM in assay [1] and over 1000 nM in assay [2].

Regarding `CCCC(c1nc2ccncc2c(=O)n1CC)N1CCCNCC1` (stereo not drawn) [Example 172, 2-(1-(1,4-diazepan-1-yl)butyl)-3-ethylpyrido[4,3-d]pyrimidin-4(3H)-one], the Ki was under 500 nM in assay [1] and over 1000 nM in assay [2].

In the case of `CCC[C@H](c1nc2ccncc2c(=O)n1CC)N1CCCN(C)CC1` [Example 173, (R)-3-Ethyl-2-(1-(4-methyl-1,4-diazepan-1-yl)butyl)pyrido[4,3-d]pyrimidin-4(3H)-one], the inhibition constant Ki in assay [1] is under 500 nM; in assay [2], over 1000 nM.

With `CCC[C@@H](c1nc2ccncc2c(=O)n1CC)N1CCCN(C)CC1` [Example 174, (S)-3-ethyl-2-(1-(4-methyl-1,4-diazepan-1-yl)butyl)pyrido[4,3-d]pyrimidin-4(3H)-one], the Ki in assay [1] was over 5000 nM; in assay [2], over 1000 nM.

Take `CCCC(c1nc2ncc(Br)cc2c(=O)n1CC)N1CCCN(C)CC1` (stereo not drawn) [Example 175, 6-Bromo-3-ethyl-2-(1-(4-methyl-1,4-diazepan-1-yl)butyl)pyrido[2,3-d]pyrimidin-4(3H)-one]: the Ki in assay [1] was under 500 nM; in assay [2] it was over 1000 nM.

`CCC[C@H](c1nc2ncc(Br)cc2c(=O)n1CC)N1CCCN(CC)CC1` [Example 176, 6-bromo-3-ethyl-2-(1-(4-ethyl-1,4-diazepan-1-yl)butyl)pyrido[2,3-d]pyrimidin-4(3H)-one]: the figures for the Ki in assay [1] and in assay [2] were over 5000 nM and over 1000 nM, respectively.

For `CCCC(c1nc2ncc(Br)cc2c(=O)n1CC)N1CCCNCC1` (stereo not drawn) [Example 177, 2-(1-(1,4-diazepan-1-yl)butyl)-6-bromo-3-ethylpyrido[2,3-d]pyrimidin-4(3H)-one], the Ki in assay [1] is under 500 nM; in assay [2] it was over 1000 nM.

As to `CCCC(c1nc2ncccc2c(=O)n1CC)N1CCCN(CC)CC1` (stereo not drawn) [Example 178, 3-ethyl-2-(1-(4-ethyl-1,4-diazepan-1-yl)butyl)pyrido[2,3-d]pyrimidin-4(3H)-one], the Ki in assay [1] is under 500 nM; in assay [2] it was over 1000 nM.

Turning to `CCCC(c1nc2ncccc2c(=O)n1CC)N1CCCNCC1` (stereo not drawn) [Example 179, 2-(1-(1,4-diazepan-1-yl)butyl)-3-ethylpyrido[2,3-d]pyrimidin-4(3H)-one], the Ki in assay [1] was 500 to 5000 nM; in assay [2], over 1000 nM.

On to `CCCC(c1nc2ncccc2c(=O)n1CC)N1CCCN(C)CC1` (stereo not drawn) [Example 180, 3-ethyl-2-(1-(4-methyl-1,4-diazepan-1-yl)butyl)pyrido[2,3-d]pyrimidin-4(3H)-one], for which the results for the Ki in assay [1] and in assay [2] were under 500 nM and over 1000 nM, respectively.

With `CCCC(c1nc2ncc(Br)cc2c(=O)n1CCC)N1CCCN(C)CC1` (stereo not drawn) [Example 181, 6-bromo-2-(1-(4-methyl-1,4-diazepan-1-yl)butyl)-3-propylpyrido[2,3-d]pyrimidin-4(3H)-one], the Ki in assay [1] is under 500 nM; in assay [2] it was over 1000 nM.

Take `CCCC(c1nc2ncc(F)cc2c(=O)n1CC)N1CCCN(C)CC1` (stereo not drawn) [Example 182]: the Ki was under 500 nM in assay [1] and over 1000 nM in assay [2].

Take `CCCC(c1nc2ncc(Br)cc2c(=O)n1CC1CC1)N1CCCN(C)CC1` (stereo not drawn) [Example 183, 6-bromo-3-(cyclopropylmethyl)-2-(1-(4-methyl-1,4-diazepan-1-yl)butyl)pyrido[2,3-d]pyrimidin-4(3H)-one]: the results for the Ki in assay [1] and in assay [2] were under 500 nM and over 1000 nM, respectively.

Regarding `CCCC(c1nc2ncc(F)cc2c(=O)n1CC1CC1)N1CCCN(C)CC1` (stereo not drawn) [Example 184, 3-(cyclopropylmethyl)-6-fluoro-2-(1-(4-methyl-1,4-diazepan-1-yl)butyl)pyrido[2,3-d]pyrimidin-4(3H)-one], the Ki in assay [1] is under 500 nM; in assay [2] it was over 1000 nM.

For `CCCC(c1nc2ncc(F)cc2c(=O)n1CC1CC1)N1CCCN(CC)CC1` (stereo not drawn) [Example 185, 3-(cyclopropylmethyl)-2-(1-(4-ethyl-1,4-diazepan-1-yl)butyl)-6-fluoropyrido[2,3-d]pyrimidin-4(3H)-one], the values for the inhibition constant Ki in assay [1] and in assay [2] were under 500 nM and over 1000 nM, respectively.

Take `CCC[C@H](c1nc2ncc(Br)cc2c(=O)n1CC)N1CCN(C)C[C@@H](C)C1` [Example 186, 6-bromo-2-((R)-1-((R)-4,6-dimethyl-1,4-diazepan-1-yl)butyl)-3-ethylpyrido[2,3-d]pyrimidin-4(3H)-one]: the figures for the Ki in assay [1] and in assay [2] were under 500 nM and over 1000 nM, respectively.

In the case of `CCC[C@H](c1nc2ncc(Br)cc2c(=O)n1CC)N1CCN(C)C[C@H](C)C1` [Example 187, 6-bromo-2-((R)-1-((S)-4,6-dimethyl-1,4-diazepan-1-yl)butyl)-3-ethylpyrido[2,3-d]pyrimidin-4(3H)-one], the Ki in assay [1] is under 500 nM; in assay [2], over 1000 nM.

Regarding `CCC[C@@H](c1nc2ncc(Br)cc2c(=O)n1CC)N1CCN(C)C[C@H](C)C1` [Example 188, 6-bromo-2-((S)-1-((S)-4,6-dimethyl-1,4-diazepan-1-yl)butyl)-3-ethylpyrido[2,3-d]pyrimidin-4(3H)-one], the Ki in assay [1] is over 5000 nM; in assay [2] it was over 1000 nM.

Turning to `CCC[C@@H](c1nc2ncc(Br)cc2c(=O)n1CC)N1CCN(C)C[C@@H](C)C1` [Example 189, 6-bromo-2-((S)-1-((R)-4,6-dimethyl-1,4-diazepan-1-yl)butyl)-3-ethylpyrido[2,3-d]pyrimidin-4(3H)-one], the Ki was over 5000 nM in assay [1] and over 1000 nM in assay [2].

In the case of `CCCC(c1nc2nc(C(F)(F)F)ccc2c(=O)n1CC)N1CCCN(C)CC1` (stereo not drawn) [Example 190, 3-ethyl-2-(1-(4-methyl-1,4-diazepan-1-yl)butyl)-7-(trifluoromethyl)pyrido[2,3-d]pyrimidin-4(3H)-one], the figures for the Ki in assay [1] and in assay [2] were 500 to 5000 nM and over 1000 nM, respectively.

With `CCCC(c1nc2cnc(OC)cc2c(=O)n1CC)N1CCCN(C)CC1` (stereo not drawn) [Example 191, 3-ethyl-6-methoxy-2-(1-(4-methyl-1,4-diazepan-1-yl)butyl)pyrido[3,4-d]pyrimidin-4(3H)-one], the inhibition constant Ki in assay [1] was under 500 nM; in assay [2] it was over 1000 nM.

As for `CCCC(c1nc2cnc(C(F)(F)F)cc2c(=O)n1CC)N1CCCN(C)CC1` (stereo not drawn) [Example 192, 3-ethyl-2-(1-(4-methyl-1,4-diazepan-1-yl)butyl)-6-(trifluoromethyl)pyrido[3,4-d]pyrimidin-4(3H)-one], the values for the inhibition constant Ki in assay [1] and in assay [2] were under 500 nM and over 1000 nM, respectively.

`CCC[C@@H](c1nc2ncc(F)cc2c(=O)n1CC1CC1)N1CCN[C@H](C)CC1` [Example 193, 3-(cyclopropylmethyl)-6-fluoro-2-((S)-1-((R)-5-methyl-1,4-diazepan-1-yl)butyl)pyrido[2,3-d]pyrimidin-4(3H)-one]: the Ki in assay [1] is over 5000 nM; in assay [2], over 1000 nM.

These data come from patent publication US12479830B2, “Homopiperazinyl and homopiperidinyl quinazolin-4(3H)-one derivatives having multimodal activity against pain” (ESTEVE PHARMACEUTICALS, S.A., priority 2019, dated 2025).
